# Measured values from BindingDB's records for doi:10.1016/j.ejmech.2011.02.013 (King Saud University, 2011).
# Target: T1, Prostaglandin G/H synthase 1 (Ovis aries, UniProt P05979)
# T1 sequence (P05979 whole entry): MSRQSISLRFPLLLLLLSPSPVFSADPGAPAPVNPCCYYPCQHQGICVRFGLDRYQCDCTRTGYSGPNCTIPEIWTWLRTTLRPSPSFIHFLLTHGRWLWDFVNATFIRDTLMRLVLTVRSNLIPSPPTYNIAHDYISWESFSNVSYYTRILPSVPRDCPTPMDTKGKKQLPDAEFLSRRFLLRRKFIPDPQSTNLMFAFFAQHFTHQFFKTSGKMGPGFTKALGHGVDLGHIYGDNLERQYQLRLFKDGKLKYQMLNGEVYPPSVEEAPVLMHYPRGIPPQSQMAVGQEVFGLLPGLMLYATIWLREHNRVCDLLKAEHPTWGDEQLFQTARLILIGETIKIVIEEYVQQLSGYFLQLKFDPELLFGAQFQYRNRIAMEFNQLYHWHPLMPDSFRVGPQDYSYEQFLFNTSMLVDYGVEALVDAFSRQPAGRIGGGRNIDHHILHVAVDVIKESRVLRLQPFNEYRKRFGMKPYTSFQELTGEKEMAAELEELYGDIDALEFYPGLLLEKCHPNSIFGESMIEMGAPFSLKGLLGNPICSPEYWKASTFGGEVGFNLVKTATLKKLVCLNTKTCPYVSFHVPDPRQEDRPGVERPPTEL
# Assay: Inhibition of ovine COX1 after 5 mins by enzyme immunoassay
row,SMILES,IC50
1,"Oc1ccc(O)n1-c1cc(Cl)c(Cl)c(Cl)c1 [1-(3,4,5-trichlorophenyl)pyrrolidine-2,5-dione]",> 100 µM
2,"Oc1c2c(c(O)n1-c1cc(Cl)c(Cl)c(Cl)c1)C1(Cl)C(Cl)=C(Cl)C2(Cl)C1(Cl)Cl [4,5,6,7,8,8-Hexachloro-2-(3,4,5-trichlorophenyl)-3a,4,7,7a-tetrahydro-1H-4,7-methanoisoindole-1,3(2H)-dione]",> 100 µM
3,"COc1cc(-n2c(O)ccc2O)cc(OC)c1OC [1-(3,4,5-Trimethoxyphenyl)pyrrolidine-2,5-dione]",> 100 µM

# Results, then the molecule that gave them:
row,IC50,SMILES
1,> 100 µM,"COc1cc(-n2c(O)c3c(c2O)CC=CC3)cc(OC)c1OC [cis-2-(3,4,5-Trimethoxyphenyl)-3a,4,7,7a-tetrahydro-1H-isoindole-1,3(2H)-dione]"
2,> 100 µM,"COc1cc(-n2c(O)c3c(c2O)C2(Cl)C(Cl)=C(Cl)C3(Cl)C2(Cl)Cl)cc(OC)c1OC [4,5,6,7,8,8-Hexachloro-2-(3,4,5-trimethoxyphenyl)-3a,4,7,7a-tetrahydro-1H-4,7-methanoisoindole-1,3(2H)-dione]"
3,> 100 µM,"Oc1c2c(c(O)n1-c1cc(Cl)c(Cl)c(Cl)c1)CC=CC2 [cis-2-(3,4,5-Trichlorophenyl)-3a,4,7,7a-tetrahydro-1H-isoindole-1,3(2H)-dione]"
